Assay results taken from the NIST ThermoML archive (doi:10.1016/j.jct.2015.09.030).
± gives the expanded uncertainty stated by the source.

Experiments:
[1] = Liquid; for viscosity: Falling or rolling sphere viscometry; for mass density: Vibrating tube method
[2] = xn = mol fraction of the nth substance listed; settings: 100 kPa, Liquid, x2 = 0; for mass density: Vibrating tube method; for viscosity: Falling or rolling sphere viscometry

In the case of CO [methanol], the viscosity ([1]; 290.15 K, 100 kPa) is reported as 0.6069 ± 0.061 mPa·s, the mass density ([1]; 290.15 K, 100 kPa) is reported as 797.3 ± 6 kg/m3 and the viscosity ([1]; 293.15 K, 100 kPa) is reported as 0.5853 ± 0.059 mPa·s. It also gave a mass density ([1]; 293.15 K, 100 kPa) of 793.5 ± 6 kg/m3, a viscosity ([1]; 295.15 K, 100 kPa) of 0.5571 ± 0.056 mPa·s and a mass density ([1]; 295.15 K, 100 kPa) of 790.8 ± 6 kg/m3. For the same compound, the viscosity ([1]; 298.15 K, 100 kPa) was 0.5446 ± 0.055 mPa·s, the mass density ([1]; 298.15 K, 100 kPa) was 786.8 ± 6 kg/m3 and the viscosity ([1]; 303.15 K, 100 kPa) was 0.5122 ± 0.051 mPa·s. It also gave a mass density ([1]; 303.15 K, 100 kPa) of 781.4 ± 6 kg/m3, a viscosity ([1]; 308.15 K, 100 kPa) of 0.4794 ± 0.048 mPa·s and a mass density ([1]; 308.15 K, 100 kPa) of 777.3 ± 6 kg/m3. The viscosity ([1]; 313.15 K, 100 kPa) was 0.4508 ± 0.045 mPa·s, the mass density ([1]; 313.15 K, 100 kPa) was 772.1 ± 6 kg/m3 and the viscosity ([1]; 318.15 K, 100 kPa) was 0.4317 ± 0.043 mPa·s. It also gave a mass density ([1]; 318.15 K, 100 kPa) of 767.7 ± 6 kg/m3, a viscosity ([1]; 323.15 K, 100 kPa) of 0.4051 ± 0.041 mPa·s and a mass density ([1]; 323.15 K, 100 kPa) of 762.1 ± 6 kg/m3.

In the case of CO [methanol] + CCCCCCCCCCCCCC[P+](CCCCCC)(CCCCCC)CCCCCC.[Cl-], the mass density ([2]; 290.15 K) is reported as 797.3 ± 6 kg/m3, the mass density ([2]; 293.15 K) is reported as 793.5 ± 6 kg/m3 and the viscosity ([2]; 295.15 K) is reported as 0.557 ± 0.056 mPa·s. It also gave a mass density ([2]; 295.15 K) of 790.8 ± 6 kg/m3, a viscosity ([2]; 298.15 K) of 0.544 ± 0.055 mPa·s and a mass density ([2]; 298.15 K) of 786.8 ± 6 kg/m3. For the same compound, the viscosity ([2]; 303.15 K) was 0.512 ± 0.051 mPa·s, the mass density ([2]; 303.15 K) was 781.4 ± 6 kg/m3 and the viscosity ([2]; 308.15 K) was 0.479 ± 0.048 mPa·s. The mass density ([2]; 308.15 K) was 777.3 ± 6 kg/m3, the viscosity ([2]; 313.15 K) was 0.451 ± 0.045 mPa·s and the mass density ([2]; 313.15 K) was 772.1 ± 6 kg/m3.

CCCCCCCCCCCCCC[P+](CCCCCC)(CCCCCC)CCCCCC.[Cl-] [trihexyl(tetradecyl)phosphonium chloride] gave a mass density ([1]; 290.15 K, 101.33 kPa) of 897.5 ± 6.2 kg/m3, a viscosity ([1]; 293.15 K, 101.33 kPa) of 1996 ± 300 mPa·s and a mass density ([1]; 293.15 K, 101.33 kPa) of 895.8 ± 6.2 kg/m3. It also gave a viscosity ([1]; 295.15 K, 101.33 kPa) of 1996 ± 300 mPa·s, a mass density ([1]; 295.15 K, 101.33 kPa) of 894.6 ± 6.2 kg/m3 and a viscosity ([1]; 298.15 K, 101.33 kPa) of 1683 ± 250 mPa·s. For the same compound, the mass density ([1]; 298.15 K, 101.33 kPa) was 892.8 ± 6.2 kg/m3, the viscosity ([1]; 303.15 K, 101.33 kPa) was 1174 ± 160 mPa·s and the mass density ([1]; 303.15 K, 101.33 kPa) was 889.8 ± 6.2 kg/m3. For the same compound, the viscosity ([1]; 308.15 K, 101.33 kPa) was 824.1 ± 110 mPa·s, the mass density ([1]; 308.15 K, 101.33 kPa) was 886.9 ± 6.2 kg/m3 and the viscosity ([1]; 313.15 K, 101.33 kPa) was 593.7 ± 75 mPa·s. The mass density ([1]; 313.15 K, 101.33 kPa) was 883.9 ± 6.2 kg/m3, the viscosity ([1]; 318.15 K, 101.33 kPa) was 399.9 ± 48 mPa·s and the mass density ([1]; 318.15 K, 101.33 kPa) was 880.8 ± 6.2 kg/m3. For the same compound, the viscosity ([1]; 323.15 K, 101.33 kPa) was 325.9 ± 38 mPa·s and the mass density ([1]; 323.15 K, 101.33 kPa) was 878 ± 6.2 kg/m3.
